Laboratory results published in patent publication US11931431B2, “PSMA-targeted radiopharmaceutical for diagnosing and treating prostate cancer” (FUTURECHEM CO., LTD, priority 2018, dated 2024).

Tests used:
PSMA^+ PC-3 PIP tumors [1] = assay: Biodistribution test with mice transplanted with prostate cancer cell lines (gamma counter); assay type: in vivo, nude mouse; conditions: 5 hours after injection
Experimental: After 270 minutes of [^68Ga]1e and [^68Ga]1g injection, microPET/CT images were obtained for 30 minutes, and then each organ (blood, muscle, fat, heart, lung, liver, spleen, stomach, intestine, kidney, bone and tumor) was extracted and the radioactivity thereof was measured using a gamma counter.

PSMA^+ PC-3 PIP tumors [2] = assay: MicroPET/CT imaging of mice transplanted with prostate cancer cell lines; assay type: in vivo, nude mouse
Experimental: A tumor model was prepared by subcutaneously injecting PSMA^+ PC-3 PIP cells (a human prostate cancer cell line) to the right side of the nude mouse hind leg. Each of the ^68Ga-labeled compounds [^68Ga]1e, [^68Ga]1g, [^68Ga]1h and [^68Ga]1k was intravenously injected with 5.5 to 6.5 MBq (148-175 μCi/200 μL), and PET/CT images were obtained using small animal INVEON PET/CT (Siemens medical solutions, Knoxville, USA) for 60 minutes. After 150 minutes, 270 minutes, and 390 minutes, PET/CT images were also obtained for 30 minutes. The obtained PET/CT image results were quantitatively analyzed using Inveon™ Research Workplace (IRW).
FIGS. 1, 2, 3, and 4 are graphs showing the quantitative analysis results of MicorPET/CT images for [^68Ga]1e, [^68Ga]1g, [^68Ga]1h, and [^68Ga]1k in % injected dose (ID)/g, and summarized in Tables 3, 4, 5, and 6, respectively.

[3] = Measurement of lipophilicity (log P), n-octanol/PBS; assay type: physicochemical; conditions: mean of 3
Experimental: Each of the [^68Ga]1 compounds (1˜2 mci) synthesized in Example 14 was transferred into a vial, and the solvent was removed, to which 1 mL of n-octanol and 1 mL of PBS were added, and the lid was well closed, followed by mixing with a vortex for 1 minute. After the layers were separated, 0.1 mL was taken from each layer and the radiation dose was measured. The radiation dose was measured by repeating 3 times, and the mean value was obtained.

- tumor intake rate, times higher than that of [^68Ga]1e (PSMA^+ PC-3 PIP tumors [1]): about 1.4 times
- Radioactivity in mouse organ: Blood (PSMA^+ PC-3 PIP tumors [1]; gamma counter): 0.02 ± 0.03 % ID/g
- Radioactivity in mouse organ: Bone (PSMA^+ PC-3 PIP tumors [1]; gamma counter): 0.01 ± 0.01 % ID/g
- Radioactivity in mouse organ: Fat (PSMA^+ PC-3 PIP tumors [1]; gamma counter): 0.11 ± 0.15 % ID/g
- Radioactivity in mouse organ: Heart (PSMA^+ PC-3 PIP tumors [1]; gamma counter): 0.02 ± 0.01 % ID/g
- Radioactivity in mouse organ: Intestine (PSMA^+ PC-3 PIP tumors [1]; gamma counter): 0.09 ± 0.08 % ID/g
- Radioactivity in mouse organ: Kidney (PSMA^+ PC-3 PIP tumors [1]; gamma counter): 9.15 ± 11.26 % ID/g
- Radioactivity in mouse organ: Liver (PSMA^+ PC-3 PIP tumors [1]; gamma counter): 0.03 ± 0.01 % ID/g
- Radioactivity in mouse organ: Lung (PSMA^+ PC-3 PIP tumors [1]; gamma counter): 0.07 ± 0.07 % ID/g
- Radioactivity in mouse organ: Muscle (PSMA^+ PC-3 PIP tumors [1]; gamma counter): 0.01 ± 0.00 % ID/g
- Radioactivity in mouse organ: Spleen (PSMA^+ PC-3 PIP tumors [1]; gamma counter): 0.20 ± 0.27 % ID/g
- Radioactivity in mouse organ: Stomach (PSMA^+ PC-3 PIP tumors [1]; gamma counter): 0.02 ± 0.02 % ID/g
- intake of mouse organ: Bladder (PSMA^+ PC-3 PIP tumors [2]; 10 min after injection): 2.28 ± 0.11 % ID/g
- intake of mouse organ: Kidney (PSMA^+ PC-3 PIP tumors [2]; 10 min after injection): 16.40 ± 0.10 % ID/g
- intake of mouse organ: Liver (PSMA^+ PC-3 PIP tumors [2]; 10 min after injection): 9.55 ± 2.22 % ID/g
- intake of mouse organ: Muscle (PSMA^+ PC-3 PIP tumors [2]; 10 min after injection): 1.49 ± 1.64 % ID/g
- intake of mouse organ: Tumor (PIP) (PSMA^+ PC-3 PIP tumors [2]; 10 min after injection): 2.18 ± 0.63 % ID/g
- intake of mouse organ: Bladder (PSMA^+ PC-3 PIP tumors [2]; 20 min after injection): 6.98 ± 2.51 % ID/g
- intake of mouse organ: Kidney (PSMA^+ PC-3 PIP tumors [2]; 20 min after injection): 19.80 ± 0.73 % ID/g
- intake of mouse organ: Liver (PSMA^+ PC-3 PIP tumors [2]; 20 min after injection): 7.26 ± 1.06 % ID/g
- intake of mouse organ: Muscle (PSMA^+ PC-3 PIP tumors [2]; 20 min after injection): 1.88 ± 2.00 % ID/g
- intake of mouse organ: Tumor (PIP) (PSMA^+ PC-3 PIP tumors [2]; 20 min after injection): 4.42 ± 1.50 % ID/g
- intake of mouse organ: Bladder (PSMA^+ PC-3 PIP tumors [2]; 30 min after injection): 13.51 ± 5.83 % ID/g
- intake of mouse organ: Kidney (PSMA^+ PC-3 PIP tumors [2]; 30 min after injection): 21.18 ± 2.17 % ID/g
- intake of mouse organ: Liver (PSMA^+ PC-3 PIP tumors [2]; 30 min after injection): 6.10 ± 0.50 % ID/g
- intake of mouse organ: Muscle (PSMA^+ PC-3 PIP tumors [2]; 30 min after injection): 1.69 ± 1.78 % ID/g
- intake of mouse organ: Tumor (PIP) (PSMA^+ PC-3 PIP tumors [2]; 30 min after injection): 5.43 ± 1.94 % ID/g
- intake of mouse organ: Bladder (PSMA^+ PC-3 PIP tumors [2]; 40 min after injection): 18.89 ± 8.84 % ID/g
- intake of mouse organ: Kidney (PSMA^+ PC-3 PIP tumors [2]; 40 min after injection): 22.74 ± 3.48 % ID/g
- intake of mouse organ: Liver (PSMA^+ PC-3 PIP tumors [2]; 40 min after injection): 5.38 ± 0.22 % ID/g
- intake of mouse organ: Muscle (PSMA^+ PC-3 PIP tumors [2]; 40 min after injection): 1.61 ± 1.69 % ID/g
- intake of mouse organ: Tumor (PIP) (PSMA^+ PC-3 PIP tumors [2]; 40 min after injection): 6.43 ± 2.32 % ID/g
- intake of mouse organ: Bladder (PSMA^+ PC-3 PIP tumors [2]; 50 min after injection): 22.76 ± 10.86 % ID/g
- intake of mouse organ: Kidney (PSMA^+ PC-3 PIP tumors [2]; 50 min after injection): 24.20 ± 4.60 % ID/g
- intake of mouse organ: Liver (PSMA^+ PC-3 PIP tumors [2]; 50 min after injection): 4.75 ± 0.07 % ID/g
- intake of mouse organ: Muscle (PSMA^+ PC-3 PIP tumors [2]; 50 min after injection): 1.54 ± 1.62 % ID/g
- intake of mouse organ: Tumor (PIP) (PSMA^+ PC-3 PIP tumors [2]; 50 min after injection): 7.33 ± 2.76 % ID/g
- intake of mouse organ: Bladder (PSMA^+ PC-3 PIP tumors [2]; 60 min after injection): 24.74 ± 11.23 % ID/g
- intake of mouse organ: Kidney (PSMA^+ PC-3 PIP tumors [2]; 60 min after injection): 25.78 ± 4.72 % ID/g
- intake of mouse organ: Liver (PSMA^+ PC-3 PIP tumors [2]; 60 min after injection): 4.41 ± 0.03 % ID/g
- intake of mouse organ: Muscle (PSMA^+ PC-3 PIP tumors [2]; 60 min after injection): 1.32 ± 1.33 % ID/g
- intake of mouse organ: Tumor (PIP) (PSMA^+ PC-3 PIP tumors [2]; 60 min after injection): 8.29 ± 2.99 % ID/g
- intake of mouse organ: Bladder (PSMA^+ PC-3 PIP tumors [2]; 150 min after injection): 42.3 ± 41.58 % ID/g
- intake of mouse organ: Kidney (PSMA^+ PC-3 PIP tumors [2]; 150 min after injection): 15.75 ± 11.53 % ID/g
- intake of mouse organ: Liver (PSMA^+ PC-3 PIP tumors [2]; 150 min after injection): 0.45 ± 0.11 % ID/g
- intake of mouse organ: Muscle (PSMA^+ PC-3 PIP tumors [2]; 150 min after injection): 0.21 ± 0.03 % ID/g
- intake of mouse organ: Tumor (PIP) (PSMA^+ PC-3 PIP tumors [2]; 150 min after injection): 11.4 ± 5.23 % ID/g
- intake of mouse organ: Bladder (PSMA^+ PC-3 PIP tumors [2]; 270 min after injection): 12.05 ± 2.76 % ID/g
- intake of mouse organ: Kidney (PSMA^+ PC-3 PIP tumors [2]; 270 min after injection): 12.45 ± 9.69 % ID/g
- intake of mouse organ: Liver (PSMA^+ PC-3 PIP tumors [2]; 270 min after injection): 0.22 ± 0.01 % ID/g
- intake of mouse organ: Muscle (PSMA^+ PC-3 PIP tumors [2]; 270 min after injection): 0.06 ± 0.02 % ID/g
- intake of mouse organ: Tumor (PIP) (PSMA^+ PC-3 PIP tumors [2]; 270 min after injection): 13.00±4.95 % ID/g
- tumor intake increase compared to [^68Ga]1e (PSMA^+ PC-3 PIP tumors [2]; 270 minutes): about 3 times
- excretion, in words (PSMA^+ PC-3 PIP tumors [2]; MicroPET/CT): rapidly excreted out of the body
- tumor intake over time, in words (PSMA^+ PC-3 PIP tumors [2]; MicroPET/CT): tumor intake was increased over time
- logP [3]: −2.42
Structure (SMILES): Cc1ccc(CCCC(=O)NCCCCC(NC(=O)CN2CCN3CCN4CCN(CC2)CC(=O)[O][68Ga]([O]C(=O)C3)[O]C(=O)C4)C(=O)NCCOCCOCC(=O)N(CCCCC(NC(=O)NC(CCC(=O)O)C(=O)O)C(=O)O)CC(=O)O)cc1 (stereo not drawn) [[^68Ga]1g]
- residence time in the blood, in words (PSMA^+ PC-3 PIP tumors [2]; MicroPET/CT): residence time in the blood was increased
